Assay [1] concerns human pluripotent stem cells. Description: HD-DoE #2: 13-factor model, differentiation toward anterior neuroectoderm, gene expression. Format: cell-based. As to conditions: dynamic profiling analysis, 13-factor model. The source says: To further enhance the conditions for oligodendrocyte differentiation from pluripotency, we performed an additional HD-DoE experiment. We obtained additional gene regulatory models that were used for preparation of a differentiation protocol. The basis of this was a 13-factor HD-DoE experiment with focus on initiation of differentiation of cells toward anterior neuroectoderm. In this model, we focused on expression of FEZF2 and OTX2.
As shown in the results summarized in FIG. 4, the model was optimized for highest expression of OTX2 at 12755.9. According to the model of high expression of OTX2, seven effectors had positive contribution including MK2206, PD0325901, CHIR99021, LDN193189, Go6983, PD173074 and BLU9931 with highest factor contribution of 22.2 for MK2206 and lowest factor contribution of 1.7 for PD173074 and BLU9931.
As shown in the results summarized in FIG. 5, the model was optimized for highest expression of FEZF2 at 4466. When the model was optimized for maximum expression level of FEZF2, three effectors including LDN193189 with factor contribution of 19.5, PD0325901 with factor contribution of 14.6 and MK2206 with factor contribution of 12.3 were common with previous condition and three new effectors including purmorphamine-500 nM, XAV939 and SC79 were introduced.
As shown in the results summarized in FIG. 6, to fine-tune the recipe and find the optimum combination of factors for high expression of both OTX2 and FEZF2, dynamic profiling analysis was done. […] Therefore, these two factors were added to the optimized culture recipe.

Assay [2] deals with pre-OPCs. As to the kind of experiment: HD-DoE second 12-factor model for stage 2 (Purmorphamine with TTNPB, Biotin, Insulin etc.). Format: cell-based, human. As to conditions: optimized for OLIG2 at 3299.4; positive impact. The protocol:
(§1) To gain more information about the effect of Purmorphamine on differentiation of pre-OPCs to a more committed cell population, we tested this factor in two other models. In a 12-factor model, we included Purmorphamine, FGF2, AGN193109 and CHIR99021 along with 8 new inputs including TTNPB, Biotin, Insulin, propionate, DBZ, Yhhu3792, LDN193189 and Y-27632. […] In another 12-factor model, Purmorphamine was tested along with A 8301, CHIR99021, Dexamethasone, T3+T4, PD0325901, ZM336372, DBZ, BMP7, PD173074, SANT-1 and PDGF-AA.

The test system of assay [3] is stage 1 pre-OPCs. Description: HD-DoE third 12-factor model for stage 2 (Purmorphamine with A 8301, Dexamethasone etc.). Format: cell-based, human. Particulars: optimized for OLIG2 at 644.6; positive impact. How it is done: as §1
The test system of assay [4] is cells cultured in stage 1 and stage 2 differentiation media. As to the kind of experiment: HD-DoE 8-factor model for stage 3 (version 2). Format: cell-based, human. As to conditions: for factor contribution: positive.
For assay [5], the system named is OPCs. As to the kind of experiment: HD-DoE 8-factor model for stage 4 on OPCs. Format: cell-based, human. As to conditions: optimized for maximal expression of CNP at 1339; positive. How it is done: (§2) To engineer the recipe of stage 4 of differentiation, 48 or 96 different combinations of effectors generated using Design-of-Experiments compression through D-optimality were robotically prepared. The effector combinations were prepared in a basal media and were subsequently added to the cells, which were treated with the stage 1, stage 2 and stage 3 differentiation media as described in the earlier examples to generate OPCs. […] Solutions within the tested space could then be explored to address desirability.

In assay [6] the test system is OPCs. Description: HD-DoE 12-factor model for stage 4 on OPCs, 6 days in culture. Format: cell-based, human. Particulars: optimized for PLP1 at 3600; negative impact. The protocol: as §2, with “desirability. […] Benarroch (2009) Neurology 72:1779-1785; Shi et al. (2019) Exp Ther Med, 18:1258-1266).” for “desirability.”
Assay [7] relates to cells cultured in stage 1 and stage 2 differentiation media. Description: Two further HD-DoE models optimized for SOX10 (IGF-1, FGF-2, AGN193109). Format: cell-based, human. As to conditions: two other models optimized for SOX10. The text has this: According to literature, proteins such as FGF-2, IGF-1, PDGF-AA and NT-3 play an important role in oligodendrocyte differentiation (Goldman and Kuypers (2015) Development 142:3983-95). In the first model, FGF-2 had positive regulatory impact only on the expression level of SOX10 and IGF-1 on PDGFRa. Therefore, to further understand the impact of IGF-1 and FGF-2 on differentiation of cells and confirm their positive role, we included these factors in two other models and optimized the models for maximum expression of SOX10. This gene is one of the main transcription factors of oligodendrocytes, along with OLIG2 and NKX2-2 that has shown the potential to commit the stem cells to oligodendrocytes in reprogramming efforts (Wang et al, (2014) Proc Natl Arad Sri USA 111:E2885-94; García-León et al. (2018) Stem Cell Reports 10:655-672).

Where “and” joins values, the source holds several entries; their conditions need not be identical. Equal values may be shown once.

Turning to `c1ccc2c(Oc3nc(Nc4ccc(N5CCOCC5)cc4)c4ncn(C5CCCCC5)c4n3)cccc2c1` [Purmorphamine], the “effect on expression of FEZF2” value in assay [1] was “significant positive effects”. Also, the “impact on expression level of OTX2” value in assay [1] was “no negative impact”. For the same molecule, the factor contribution in assay [2] is 13 and 13.03; in assay [3] it was 16.9; in assay [4] (optimized for maximum expression of PDGFRa at 853.4), 20.6 and 20.61; in assay [5], 10; in assay [6], 10.
As to “FGF2: FGF pathway activator, an FGFR agonist”, the “effect on late OPC genes and neuronal genes” value in assay [4] (factor plots vs concentration) was “increased the expression levels of OPC genes while decreasing the expression levels of neuronal genes”. Moreover, in assay [4] (optimized for SOX10 at 41.04), the factor contribution came to 15.3. The “impact on the expression level of SOX10” value in assay [7] was “positive impact”.

The values are drawn from patent US12729368B2, “Methods and compositions for generating oligodendrocyte progenitor cells” (Trailhead Biosystems Inc., priority 2022, dated 2026).
